From patent US7214494B2, “Method of screening for substance preventing or treating diseases in association with malfunction of IL-6 family cytokine receptor malfunction” (Saten Pharmaceutical Co., Ltd., priority 2000, dated 2007) come the findings set out here.

In this test the test system is arthritis in gp130^F759/F759 mice. Put plainly: Screening test for anti-arthritis agents in gp130F759/F759 mice. It is filed as in vivo, mouse. To be noted: for arthritis score: gp130^F759/F759 mice developing arthritis, methotrexate 0.4 mg/kg orally five days in a week from age of 9 months. On the procedure:
gp130^F759/F759 mice or mice obtained by backcrossing of the gp130^F759/F759 mice (gp130^F759/F759-related mice) were used as a model mouse. A test compound of antirheumatic drugs such as bucilamine and methotrexate, nonsteroidal anti-inflammatory drugs such as diclofenac, or steroidal drugs such as dexamethasone was administered. The administration was conducted before the onset of immune disorders or arthritis for screening of prophylactic drugs, whereas after the observation of visible arthritis for screening of therapeutic drugs. The following is to illustrate the screening test for anti-arthritic agents using methotrexate as a test compound, and screening tests for other compounds would be conducted according to a similar manner to the following.
Methotrexate was administered orally at a dose of 0.4 mg/kg to the mice at the aged of 9 months for five days in a week. […] The severity of arthritis was scored based on restricted range of motion, swelling and flare of digit joints, and the presence or absence of rigidity. The mice whose arthritis conditions were observed constantly for two weeks or more were estimated as developed animal, and incident and severity were determined with time course.

`CN(Cc1cnc2nc(N)nc(N)c2n1)c1ccc(C(=O)N[C@@H](CCC(=O)O)C(=O)O)cc1` [methotrexate]: the arthritis score is given as 1.33±0.33 (aged 48 weeks (12-month-old), control 4.33±1.86) and 0.67±0.33 (aged 53 weeks, control 4.67±0.67). Besides, the “effect on arthritis in the mouse model” value (gp130^F759/F759 mice, 0.4 mg/kg orally) is “inhibits the arthritis”.
